# Where a name gives a salt, the structure may show the parent alone. Read-outs that look alike come from different tables or passages of the source.
# Experiments:
# [1] = administered intravenously in combination with lecithin, cited from earlier work
# acetylcholinesterase = acetylcholinesterase (Homo sapiens, UniProt P22303); assay: Acetylcholinesterase-inhibiting capacity, colorimetric method of Ellman et al.; format: biochemical
# [2] = Table 8, with respect to tacrine under the same conditions, hydrochloride
# [3] = Table 8, with respect to tacrine under the same conditions
# acetylcholinesterase, sequence (P22303 32-614): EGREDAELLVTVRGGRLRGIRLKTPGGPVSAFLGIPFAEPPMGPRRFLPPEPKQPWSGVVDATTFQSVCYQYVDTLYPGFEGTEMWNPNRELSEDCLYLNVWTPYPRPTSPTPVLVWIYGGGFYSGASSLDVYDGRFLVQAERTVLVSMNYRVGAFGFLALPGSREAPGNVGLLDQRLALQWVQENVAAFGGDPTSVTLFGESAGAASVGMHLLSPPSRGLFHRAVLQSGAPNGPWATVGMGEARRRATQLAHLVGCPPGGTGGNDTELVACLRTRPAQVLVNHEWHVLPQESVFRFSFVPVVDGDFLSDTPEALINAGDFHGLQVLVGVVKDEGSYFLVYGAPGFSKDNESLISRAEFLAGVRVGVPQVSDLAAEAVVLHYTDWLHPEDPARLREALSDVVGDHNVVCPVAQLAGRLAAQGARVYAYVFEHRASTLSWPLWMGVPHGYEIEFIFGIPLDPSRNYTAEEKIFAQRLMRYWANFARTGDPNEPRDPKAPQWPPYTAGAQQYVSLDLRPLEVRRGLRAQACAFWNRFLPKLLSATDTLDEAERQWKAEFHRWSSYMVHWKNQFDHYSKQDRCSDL
Structure (SMILES),IC50 tacrine/IC50 compound (ratio of the IC50 of tacrine to the IC50 of each compound) (acetylcholinesterase; [3]),IC50 tacrine/IC50 compound (ratio of the IC50 of tacrine to the IC50 of each compound) (acetylcholinesterase),other results
"Nc1c2c(nc3ccccc13)CCCC2 [tacrine, 9-amino-1,2,3,4-tetrahydroacridine]",–,–,usefulness in the treatment of Alzheimer's disease (in words) [1]: proves useful in the treatment of Alzheimer's disease; toxicity (in words) ([1]; drawback of tacrine): high toxicity
"CCC1=CC2Cc3nc4ccccc4c(N)c3C(C1)C2 (single isomer, unassigned; (-)) [(-) --Icw, (-)-12-Amino-6,7,10,11-tetrahydro-9-ethyl-7,11-methanocycloocteno[b]quinoline hydrochloride]",–,–,IC50 tacrine/IC50 compound (ratio of the IC50 of tacrine to the IC50 of each compound) (acetylcholinesterase; [2]): 4.80; inhibitory activity against the enzyme acetylcholinesterase (in words) (acetylcholinesterase; qualitative comparison with tacrine or with enantiomer): much more active than their enantiomers
"CC1=CC2Cc3nc4cc(F)ccc4c(N)c3C(C1)C2 (stereo not shown) [Iby, 12-Amino-3-fluoro-6,7,10,11-tetrahydro-9-methyl-7,11-methanocycloocta[b]quinoline]",15.28,–,–
"CC1=CC2Cc3nc4ccccc4c(N)c3C(C1)C2 (racemic) [Ibw, 12-Amino-6,7,10,11-tetrahydro-9-methyl-7,11-methanocycloocta[b]quinoline]",–,2.00,–
"CC1=CC2Cc3nc4cccc(F)c4c(N)c3C(C1)C2 (stereo not shown) [Ibx, 12-Amino-1-fluoro-6,7,10,11-tetrahydro-9-methyl-7,11-methanocycloocta[b]quinoline]",4.14,–,–
"CCC1=CC2Cc3nc4ccccc4c(N)c3C(C1)C2 (racemic) [Icw, 12-Amino-9-ethyl-6,7,10,11-tetrahydro-7,11-methanocycloocta[b]quinoline]",3.38,–,–
"Nc1c2c(nc3ccccc13)CC1C=C(c3ccccc3)CC2C1 (stereo not shown) [Ifw, 12-Amino-9-phenyl-6,7,10,11-tetrahydro-7,11-methanocycloocta[b]quinoline]",1.03,–,–
CC1=CC2Cc3nc4ccccc4c(N)c3C(C1)C2 (stereo not drawn) [(+) --Ibw],–,0.40,–
"CCC1=CC2Cc3nc4ccccc4c(N)c3C(C1)C2 (single isomer, unassigned; (+)) [(+) --Icw, (+)-12-Amino-6,7,10,11-tetrahydro-9-ethyl-7,11-methanocycloocteno[b]quinoline hydrochloride]",–,–,IC50 tacrine/IC50 compound (ratio of the IC50 of tacrine to the IC50 of each compound) (acetylcholinesterase; [2]): 0.15
CC1=CC2Cc3nc4ccccc4c(N)c3C(C1)C2 (stereo not drawn) [(-) --Ibw],–,2.80,inhibitory activity against the enzyme acetylcholinesterase (in words) (acetylcholinesterase): much more active than their enantiomers

# — patent publication US5965569A, “Polycyclic aminopyridine compounds which are acetylcholinesterase inhibitors, process for preparing them and their use” (priority 1995, dated 1999)
